Assay results: paper PMC6667453, “Opportunistic complexes of E. coli L-asparaginases with citrate anions” (Scientific Reports, 2019)
Where a name gives a salt, the structure may show the parent alone.

Columns and labels:
Type in all cases: binding
[1] = molecular target: T1, EcAI (AnsA), type I L-asparaginase from E. coli (Escherichia coli, UniProt P0A962); experiment: X-ray crystal structure, re-refined from deposited data (2p2n); details: pH about 4.0 (0.1 M citrate, 1 M NaCl); covalent, acyl-enzyme ester to Thr14 OG1 in active site; re-interpretation of ligand first modelled as L-Asp/L-Asn
T1 construct: four protomers (two dimers) in the asymmetric unit
T1 sequence (P0A962 1-338): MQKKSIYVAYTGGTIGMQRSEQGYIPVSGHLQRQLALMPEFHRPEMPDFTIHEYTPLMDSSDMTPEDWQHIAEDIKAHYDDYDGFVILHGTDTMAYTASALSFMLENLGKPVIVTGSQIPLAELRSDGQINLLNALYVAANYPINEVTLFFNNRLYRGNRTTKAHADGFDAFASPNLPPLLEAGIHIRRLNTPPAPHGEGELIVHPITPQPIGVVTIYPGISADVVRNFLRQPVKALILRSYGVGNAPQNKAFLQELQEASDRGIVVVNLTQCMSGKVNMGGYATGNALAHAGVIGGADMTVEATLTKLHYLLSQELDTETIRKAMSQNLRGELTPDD

[2] = molecular target: T2, EcAII, type II L-asparaginase from Escherichia coli (Escherichia coli, UniProt P00805); experiment: intact-protein LC/MS (electrospray); details: pH 4.0, 200 mM citrate; no L-Asp; covalent (addition of citrate minus water)
T2 construct: gene ansB; Met-(His)6-EcAII, N-terminal tag kept; secreted from E. coli triple asparaginase knockout
T2 sequence (P00805 23-348): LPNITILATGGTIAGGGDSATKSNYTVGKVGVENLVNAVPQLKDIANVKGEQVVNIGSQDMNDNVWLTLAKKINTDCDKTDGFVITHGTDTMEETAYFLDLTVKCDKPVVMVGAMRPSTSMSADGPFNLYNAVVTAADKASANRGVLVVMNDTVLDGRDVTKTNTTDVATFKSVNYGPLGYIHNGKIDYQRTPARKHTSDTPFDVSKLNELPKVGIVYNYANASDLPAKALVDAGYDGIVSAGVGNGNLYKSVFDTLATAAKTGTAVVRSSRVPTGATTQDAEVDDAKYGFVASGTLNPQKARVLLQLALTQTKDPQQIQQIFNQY

[3] = molecular target: T3, EcAII, type II L-asparaginase from Escherichia coli (Escherichia coli, UniProt P00805, D112T/K184T); experiment: X-ray crystal structure; details: pH 5.0 (also pH 5.6, 6nx7; pH 6.2, 6nx8), 0.17 M citrate, 10 mM L-Asn, 293 K; non-covalent, one of two active sites (protomer B); stabilised by His6-tag of symmetry mate, called an artifact
T3 construct: gene ansB; Met-(His)6-EcAII, N-terminal tag kept; secreted from E. coli triple asparaginase knockout

[4] = molecular target: T2, EcAII, type II L-asparaginase from Escherichia coli; experiment: X-ray crystal structure; details: pH 7.0, 0.17 M ammonium citrate, 17% PEG3350, 100 K; non-covalent, all four active sites

T3 sequence (P00805 23-348 D112T/K184T): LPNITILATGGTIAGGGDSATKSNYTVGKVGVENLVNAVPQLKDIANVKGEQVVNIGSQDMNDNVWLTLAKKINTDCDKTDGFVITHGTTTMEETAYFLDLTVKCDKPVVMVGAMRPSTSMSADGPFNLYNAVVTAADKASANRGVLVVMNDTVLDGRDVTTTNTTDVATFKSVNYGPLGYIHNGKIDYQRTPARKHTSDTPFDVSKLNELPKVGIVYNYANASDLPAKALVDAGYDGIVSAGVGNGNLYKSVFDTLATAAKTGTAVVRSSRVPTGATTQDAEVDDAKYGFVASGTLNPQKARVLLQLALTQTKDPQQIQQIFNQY

O=C(O)CC(O)(CC(=O)O)C(=O)O [CIT, citrate]
X-ray crystal structure, re-refined from deposited data (2p2n) [1]: substitution by citrate anions covalently linked to the side chain of Thr14
% abundance of adduct (+174.0) at 200 mM citrate [2]: 38.1%
X-ray crystal structure [3]: maps indicated clearly the presence of a citrate anion in this site
X-ray crystal structure [4]: The shape of this peak could be unambiguously interpreted as a citrate anion
